From ChEMBL document CHEMBL1201862, “PubChem BioAssay data set” (2004)
Active and inactive are the calls of the source.

Tests used:
[1] = target: Delta-type opioid receptor (Homo sapiens, UniProt P41143); experiment: Late-stage results from the probe development effort to identify antagonists of OPRK1: fluorescence-based cell-based dose response OPRD1 counterscreen.; assay type: functional
Mu-type opioid receptor = Mu-type opioid receptor (Homo sapiens, UniProt P35372); experiment: Late-stage results from the probe development effort to identify antagonists of OPRK1: luminescence-based cell-based dose response OPRM1 counterscreen.; assay type: functional
Albumin = Albumin (Bos taurus, UniProt P02769); experiment: Counterscreen for inhibitors of T-cell receptor (TCR)-CD3 interaction: Fluorescence-based biochemical high throughput dose response assay to identify inhibitors of T-cell receptor (TCR)-CD3 interaction using a TAMRA-labeled BSA probe.; assay type: functional
Caspase-6 = target: T1, Caspase-6 (Homo sapiens, UniProt P55212); experiment: inhibition of CASP6 peptide cleavage – biochemical, VEID-R110 fluorescence, cherry-pick, dose response (AID 720632)
T1 sequence (P55212 whole entry): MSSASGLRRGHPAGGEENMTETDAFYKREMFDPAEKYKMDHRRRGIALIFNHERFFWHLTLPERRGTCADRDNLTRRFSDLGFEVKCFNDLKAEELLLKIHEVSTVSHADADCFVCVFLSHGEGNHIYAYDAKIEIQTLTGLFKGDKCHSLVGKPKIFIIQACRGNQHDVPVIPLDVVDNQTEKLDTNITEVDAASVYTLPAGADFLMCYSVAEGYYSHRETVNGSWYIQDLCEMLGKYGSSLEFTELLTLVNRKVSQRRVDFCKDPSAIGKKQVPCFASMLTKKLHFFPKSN

Caspase-7 = Caspase-7 (Homo sapiens, UniProt P55210); experiment: caspase-7 enzyme inhibition, selectivity check – biochemical, DEVD-R110 fluorescence, cherry-pick, selectivity assay for caspase-6 inhibitor project, dose response (AID 743295); assay type: functional
[2] = alpha-synuclein stem-loop luciferase translation blockers – H4 neuroglioma cells, luminescence, confirmation (AID 1988); assay type: functional, cell-based
[3] = luciferase reporter signal suppression in cells – H4 neuroglioma cells, luminescence, dose response (AID 1990); assay type: functional, cell-based
[4] = Luminescence Cell-Based Dose Response HTS to Identify Inhibitors of 5'UTR Stem-Loop Driven Prion Protein mRNA Translation in H4 Neuroglioblastoma Cells. [Related pubchem assays: 1827 (Project Summary), 1813 (Primary HTS)]; assay type: functional

Chain of Mu-type opioid receptor (P35372 whole entry): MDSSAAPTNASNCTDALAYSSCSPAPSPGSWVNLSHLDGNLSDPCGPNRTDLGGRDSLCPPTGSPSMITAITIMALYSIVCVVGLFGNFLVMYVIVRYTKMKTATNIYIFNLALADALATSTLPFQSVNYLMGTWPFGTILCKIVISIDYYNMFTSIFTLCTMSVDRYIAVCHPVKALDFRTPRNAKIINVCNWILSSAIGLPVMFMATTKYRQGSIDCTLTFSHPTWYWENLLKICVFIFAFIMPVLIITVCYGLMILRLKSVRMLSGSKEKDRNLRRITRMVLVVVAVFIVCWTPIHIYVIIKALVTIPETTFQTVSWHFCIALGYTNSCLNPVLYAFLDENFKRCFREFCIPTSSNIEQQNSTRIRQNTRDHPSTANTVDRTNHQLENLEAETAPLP
Chain of Delta-type opioid receptor (P41143 whole entry): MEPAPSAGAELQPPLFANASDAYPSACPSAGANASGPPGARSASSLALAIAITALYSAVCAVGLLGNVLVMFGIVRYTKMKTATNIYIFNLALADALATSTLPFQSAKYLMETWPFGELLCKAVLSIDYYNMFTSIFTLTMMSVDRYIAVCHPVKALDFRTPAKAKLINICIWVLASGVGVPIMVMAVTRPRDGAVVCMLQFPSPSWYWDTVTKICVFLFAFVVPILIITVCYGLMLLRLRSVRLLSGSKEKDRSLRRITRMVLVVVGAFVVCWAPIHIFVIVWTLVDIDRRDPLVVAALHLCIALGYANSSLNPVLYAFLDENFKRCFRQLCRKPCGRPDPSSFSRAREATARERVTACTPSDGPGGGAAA
Chain of Caspase-7 (P55210 24-198 limits assumed): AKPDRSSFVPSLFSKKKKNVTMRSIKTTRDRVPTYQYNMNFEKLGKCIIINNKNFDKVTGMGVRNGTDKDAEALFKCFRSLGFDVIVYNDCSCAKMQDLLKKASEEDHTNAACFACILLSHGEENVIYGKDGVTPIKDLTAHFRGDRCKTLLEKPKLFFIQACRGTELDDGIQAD
Chain of Caspase-7 (P55210 207-303 limits assumed): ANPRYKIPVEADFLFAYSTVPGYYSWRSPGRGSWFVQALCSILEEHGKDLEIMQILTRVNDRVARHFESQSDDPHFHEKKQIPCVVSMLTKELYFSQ
Chain of Albumin (P02769 whole entry): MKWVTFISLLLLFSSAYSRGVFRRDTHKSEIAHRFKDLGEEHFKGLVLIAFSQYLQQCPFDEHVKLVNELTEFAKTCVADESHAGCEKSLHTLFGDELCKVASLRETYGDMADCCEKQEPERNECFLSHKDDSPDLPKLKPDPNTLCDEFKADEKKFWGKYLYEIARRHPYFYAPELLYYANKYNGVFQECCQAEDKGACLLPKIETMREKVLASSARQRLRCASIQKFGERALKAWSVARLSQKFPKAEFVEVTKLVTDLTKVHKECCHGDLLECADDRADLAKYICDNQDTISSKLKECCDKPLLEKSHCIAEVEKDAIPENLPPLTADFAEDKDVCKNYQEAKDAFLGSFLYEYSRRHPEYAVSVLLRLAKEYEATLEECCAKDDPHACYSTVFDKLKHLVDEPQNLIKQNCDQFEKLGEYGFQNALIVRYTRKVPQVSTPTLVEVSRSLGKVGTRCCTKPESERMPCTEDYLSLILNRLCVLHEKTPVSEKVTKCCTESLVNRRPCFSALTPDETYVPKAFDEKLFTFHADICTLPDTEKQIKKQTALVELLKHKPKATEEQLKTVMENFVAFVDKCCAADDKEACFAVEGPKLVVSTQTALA

Which IC50 [1] does the source give for `COC(=O)c1cc(Br)cnc1N1CCC(NC2CCOCC2)CC1` here?
Its IC50 is > 50 µM (inactive).

And the IC50 (Mu-type opioid receptor)?
The IC50 was 50 µM (inactive).

Which results are given for `O=c1c(CO)cc(CO)cc(CO)c1O`?
IC50 (Albumin): > 94 µM (inactive); AC50 (Caspase-6): 2.22 µM (active); AC50 (Caspase-7): > 70 µM (inactive)

Which EC50 [2] does the source give for `CCOc1ccccc1/N=c1\oc2cc(O)ccc2cc1C(=O)NCC1CCCO1` (centres undefined) here?
The EC50 was > 120 µM (not active).

And the EC50 [3]?
The EC50 was > 120 µM (not active).

What about the EC50 [4] of the same compound?
The EC50 was > 120 µM (not active).

And the AC50 (cells)?
The AC50 was > 70 µM (inactive).
